Source: patent US20060217352A1, “Method for treating thrombosis” (Kowa Co., Ltd., priority 2005, published 2006)

How the values were obtained:
[1] = system: clot formation; assay: Thromboelastograph maximal amplitude (MA) of clot formation after 14-day oral administration to guinea pigs; assay type: in vivo, Hartley male guinea pigs; conditions: guinea pig, oral once a day for 14 days, pitavastatin calcium 3 mg/kg and/or aspirin 100 mg/kg; for Maximal amplitude (MA) of clot formation: blood after 18 hours of fasting, average ± standard deviation; for Maximal amplitude (MA) of clot formation, relative value: relative to control group (100)
Protocol: The animals used in the test were 6 week old Hartley male guinea pigs (Japan SLC, Inc.), and these animals were kept throughout the test period in a breeding chamber with controlled day and night cycle (light period under illumination of room light, 7 am to 7 pm) at a temperature of 23±3° C. and a humidity of 55±15%.
24 guinea pigs were divided into 4 groups (5 or 6 animals in each group), namely, control group (with no drug administration), the group solely administered with pitavastatin calcium (3 mg/kg), the group solely administered with aspirin (100 mg/kg), and the group administered with a combination of pitavastatin calcium (3 mg/kg) and aspirin (100 mg/kg).

[2] = system: whole blood coagulation; assay: Thromboelastograph whole blood coagulation time (r+k value) after 14-day oral administration to guinea pigs; conditions: guinea pig, oral once a day for 14 days, pitavastatin calcium 3 mg/kg and/or aspirin 100 mg/kg; for Whole blood coagulation time (r + k value): blood after 18 hours of fasting, average ± standard deviation; for Whole blood coagulation time (r + k value), relative value: relative to control group (100)

Row | SMILES | Maximal amplitude (MA) of clot formation [1] | Maximal amplitude (MA) of clot formation, relative value [1] | Whole blood coagulation time (r + k value) [2] | Whole blood coagulation time (r + k value), relative value [2]
1 | CC(=O)Oc1ccccc1C(=O)O [Aspirin, acetyl salitylic acid] | 71.0 ± 3.1 mm | 98% | 12.7 ± 1.6 min | 109%
2 | O=C(O)C[C@H](O)C[C@H](O)/C=C/c1c(C2CC2)nc2ccccc2c1-c1ccc(F)cc1 [Pitavastatin, (3R,5S,6E)-7-[2-cyclopropyl-4-(4-fluorophenyl)-3-quinolyl]-3,5-dihydroxy-6-heptenoic acid] | 71.8 ± 5.0 mm | 99% | 12.8 ± 2.4 min | 110%
